Assay results: patent publication US11236367B2, “Fatty acid decarboxylase and its uses” (COMMISSARIAT A L'ENERGIE ATOMIQUE ET AUX ENERGIES …, priority 2016, dated 2022)

Assays:
Format in all cases: biochemical, Chlorella variabilis NC64A
[1] = target: T1, alkane synthase activity of Chlorella homogenate (Chlorella variabilis, UniProt A0A248QE08); assay: Alkane synthase activity assay on Chlorella homogenate and purification fractions (SPME, GC-MS); conditions: for effect of added co-factor on alkane synthase activity: added in different combinations to the solubilized microsomal fraction
T1 construct: Reaction mixtures contained 500 μL of each purification fraction; endogenous in cells; host or cells: Chlorella cells (homogenate, solubilized microsomal fraction, chromatography fractions)
T1 sequence (A0A248QE08 61-654 limits assumed): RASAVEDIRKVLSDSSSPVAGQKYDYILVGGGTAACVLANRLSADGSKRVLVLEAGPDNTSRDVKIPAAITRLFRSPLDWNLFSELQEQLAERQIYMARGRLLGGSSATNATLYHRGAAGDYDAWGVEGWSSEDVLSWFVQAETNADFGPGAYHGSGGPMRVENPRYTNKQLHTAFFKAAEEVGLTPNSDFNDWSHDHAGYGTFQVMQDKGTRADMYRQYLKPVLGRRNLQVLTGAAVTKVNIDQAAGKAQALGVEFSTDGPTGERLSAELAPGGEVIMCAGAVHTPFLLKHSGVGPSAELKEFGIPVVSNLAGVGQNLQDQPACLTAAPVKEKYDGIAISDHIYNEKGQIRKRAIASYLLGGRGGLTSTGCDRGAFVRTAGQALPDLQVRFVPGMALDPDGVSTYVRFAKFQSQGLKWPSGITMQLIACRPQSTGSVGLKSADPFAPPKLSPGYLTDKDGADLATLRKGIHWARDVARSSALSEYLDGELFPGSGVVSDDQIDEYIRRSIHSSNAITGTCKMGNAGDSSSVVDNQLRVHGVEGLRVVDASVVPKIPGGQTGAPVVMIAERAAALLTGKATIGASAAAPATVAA
Description: Enzymatic assays were performed in transparent glass vials sealed using caps with septum. Reaction mixtures contained 500 μL of each purification fraction, 200 μM of perdeuterated palmitic acid (10 mM stock solution in ethanol) and 45 nmol hexadecane as internal standard (4.5 mM stock solution in chloroform). Vials were agitated at 120 rpm overnight at 25° C. under a white light (intensity 120 μmol photons m^−2s^−1). Reaction was stopped by the addition of 10 μL NaOH 10 M through the septum using a syringe. Hydrocarbons produced were analyzed by incubating in the headspace of the vial a solid phase microextraction (SPME) fiber (DVB PDMS fused silica, 65 μm double-polar, Supelco) mounted on a holder. After 15 min incubation at room temperature the SPME fiber was immediately inserted into the injector of the GC-MS and desorbed at 250° C. GC-MS analysis was carried out as described below.

[2] = target: T2, Chlorella GMC oxidoreductase (Chlorella variabilis, UniProt A0A248QE08); assay: 13CO2 release from 1-13C-palmitate with the purified enzyme (membrane inlet mass spectrometry); conditions: palmitic acid labelled with 13C on the carboxylic group
T2 construct: 6 His-tagged thioredoxin (N, cleaved yes); TEV protease-cleavage site (N, cleaved yes); made in house; host or cells: E. coli BL21-CodonPlus (DE3)-RIL
T2 sequence (A0A248QE08 62-654): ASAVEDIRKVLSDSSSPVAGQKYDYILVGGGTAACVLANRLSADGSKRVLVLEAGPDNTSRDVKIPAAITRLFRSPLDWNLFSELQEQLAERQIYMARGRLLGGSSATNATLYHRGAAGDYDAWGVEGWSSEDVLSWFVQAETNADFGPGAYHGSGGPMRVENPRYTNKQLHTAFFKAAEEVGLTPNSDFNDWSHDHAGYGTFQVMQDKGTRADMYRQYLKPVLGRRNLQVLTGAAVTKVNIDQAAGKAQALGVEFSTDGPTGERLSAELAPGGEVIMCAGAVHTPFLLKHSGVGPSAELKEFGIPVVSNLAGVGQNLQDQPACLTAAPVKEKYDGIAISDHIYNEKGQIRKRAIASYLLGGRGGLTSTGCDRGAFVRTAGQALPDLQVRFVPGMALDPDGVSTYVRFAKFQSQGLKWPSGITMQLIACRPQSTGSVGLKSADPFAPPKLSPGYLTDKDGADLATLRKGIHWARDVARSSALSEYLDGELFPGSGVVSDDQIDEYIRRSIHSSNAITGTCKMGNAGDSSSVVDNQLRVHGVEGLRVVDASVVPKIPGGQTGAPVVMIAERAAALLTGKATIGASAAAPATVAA
Description: All assays were performed in transparent glass vials sealed using caps with septum. Optimum pH was determined using a Teorell Stenhagen universal buffer (33 mM citric acid monohydrate, 33 mM phosphoric acid, 100 mM NaOH, 16.7 mM of boric acid, pH 8.5 adjusted with 1N HCl). Other assays were performed in 100 mM Tris HCl pH 8.5, 100 mM NaCl. Reaction mixtures (500 μL) typically contained 160 nM purified enzyme (stock ? solution 2.5 mg ml^−1) and 400 μM substrate (stock solution 10 mM in ethanol). In some assays, a lipase was used with the alkane synthase. In this case, substrate was a triacylglycerol. Generally, samples were shaken at 200 rpm during 15 min under LED-made white light at 2000 μmol ? photons m^−2s^−1. After the incubations, samples were heated at 95° C. during 15 min to stop the enzymatic reaction. Samples were cooled down and internal standard (hexadecane) was added (45 nmol from a 4.5 mM stock solution in chloroform). NaOH was then added to the reaction mixture (10 μL from a stock solution of 10 M) and samples were vortexed for 5 min. […] The hexane phase was collected by centrifugation and analyzed by GC-MS-FID. […] In FIG. 11 activity on 1-^13C-palmitate was monitored by release of ^13CO2 using membrane inlet mass spectrometry. […]
Online measurements of ^12CO2 (m/z=44) and ^13CO2 (m/z=45) were monitored using mass spectrometry (model Prima B, Thermo Scientific). […]

[3] = target: T2, Chlorella GMC oxidoreductase; assay: Enzymatic assay with purified recombinant enzyme (GC-MS of products); conditions: for conversion of substrate by the enzyme (product formed): purified recombinant enzyme, white light
Description: All assays were performed in transparent glass vials sealed using caps with septum. Optimum pH was determined using a Teorell Stenhagen universal buffer (33 mM citric acid monohydrate, 33 mM phosphoric acid, 100 mM NaOH, 16.7 mM of boric acid, pH 8.5 adjusted with 1N HCl). Other assays were performed in 100 mM Tris HCl pH 8.5, 100 mM NaCl. Reaction mixtures (500 μL) typically contained 160 nM purified enzyme (stock ? solution 2.5 mg ml^−1) and 400 μM substrate (stock solution 10 mM in ethanol). In some assays, a lipase was used with the alkane synthase. In this case, substrate was a triacylglycerol. Generally, samples were shaken at 200 rpm during 15 min under LED-made white light at 2000 μmol ? photons m^−2s^−1. After the incubations, samples were heated at 95° C. during 15 min to stop the enzymatic reaction. Samples were cooled down and internal standard (hexadecane) was added (45 nmol from a 4.5 mM stock solution in chloroform). NaOH was then added to the reaction mixture (10 μL from a stock solution of 10 M) and samples were vortexed for 5 min. Then 250 μL of hexane was added and samples were vortexed for 5 min to extract alkanes and alkenes. The hexane phase was collected by centrifugation and analyzed by GC-MS-FID. The analysis was done by direct injection of 100 μl of the headspace into a GC-MS. In FIG. 11 activity on 1-^13C-palmitate was monitored by release of ^13CO2 using membrane inlet mass spectrometry. Illuminations were provided by CBT-120 LEDs (Luminous, Billerica) either blue (peak at 460 nm, 25 nm FWHM), or red (peak at 635 nm, 15 nm FWHM) at an intensity of 850 μmol photons m^−2 s^−1.

Compound | effect of added co-factor on alkane synthase activity [1] | conversion of substrate by the enzyme (product formed) [3] | other results
[2H]C([2H])([2H])C([2H])([2H])C([2H])([2H])C([2H])([2H])C([2H])([2H])C([2H])([2H])C([2H])([2H])C([2H])([2H])C([2H])([2H])C([2H])([2H])C([2H])([2H])C([2H])([2H])C([2H])([2H])C([2H])([2H])C([2H])([2H])C(=O)O [Deuterated palmitic acid, perdeuterated (D31) palmitic acid] |  |  | formation of labelled pentadecane from labelled substrate ([1]; Chlorella cell homogenate, overnight incubation in sealed vial): labelled pentadecane could be detected
NC(=O)C1=CN([C@@H]2O[C@H](COP(=O)(O)OP(=O)(O)OC[C@H]3O[C@@H](n4cnc5c(N)ncnc54)[C@H](OP(=O)(O)O)[C@@H]3O)[C@@H](O)[C@H]2O)C=CC1 [NADPH] | None of them were found to increase the activity |  | 
CCCCCCCCCCCCCCC[13C](=O)O [1-^13C-palmitate, reference compound] |  |  | co-product released from labelled substrate [2]: production of ^13CO2
CCCCCCCCCCCCCCCCC(=O)OCC(COC(=O)CCCCCCCCCCCCCCCC)OC(=O)CCCCCCCCCCCCCCCC [TAGs, glyceryl triheptadecanoate] |  | cannot use TAGs (triacylglycerol) directly as substrate | conversion of substrate by the enzyme in presence of a TAG lipase ([3]; purified enzyme plus TAG lipase): production of hydrocarbons is observed
O=C(O)CCCCCCCCCCCCCCCO [16-OH palmitic acid] |  | production of pentadecanol | 
CC(C)CCCC(C)CCCC(C)CCCC(C)CC(=O)O (stereo not drawn) [Phytanic acid, 3,7,11,15-tetramethylhexadecanoic acid] |  | converted into branched alkanes | 
Nc1ncnc2c1ncn2[C@@H]1O[C@H](COP(=O)(O)OP(=O)(O)OP(=O)(O)O)[C@@H](O)[C@H]1O [ATP] | None of them were found to increase the activity |  | 
NC(=O)c1ccc[n+]([C@@H]2O[C@H](COP(=O)([O-])OP(=O)(O)OC[C@H]3O[C@@H](n4cnc5c(N)ncnc54)[C@H](OP(=O)(O)O)[C@@H]3O)[C@@H](O)[C@H]2O)c1 [NADP] | None of them were found to increase the activity |  | 
